Experimental data from publication PMC9295122, “Sialic Acid Derivatives Inhibit SiaT Transporters and Delay Bacterial Growth” (ACS Chemical Biology, 2022).

Legend:
[1] = system: S. aureus COL; experiment: Growth in carbon-limited MM with inhibitor only, S. aureus; type: cell-based, Staphylococcus aureus; details: MM with casamino acids, compound 0.5 mM
Protocol: (§1) We first addressed whether these bacteria were able to catabolize the inhibitors and potentially use them as a carbon source for growth. Each strain was grown in carbon-limited defined minimal media (MM), without any carbon source other than sodium citrate for P. mirabilis and casamino acids for S. aureus, and supplemented with 3e and 3f. […] With these promising results, bacterial growth assays were performed in MM supplemented with Neu5Ac at a concentration of 3.2 mM and with 0.5 mM of compounds 3e and 3f (Figure 6a,b). The lag phase duration was determined as the time for the initial population density to increase twofold (see the horizontal dashed lines in Figure 6a,b). The effects were significant in the case of S. aureus, where a delayed growth of 4.4 and 9.4 h (P < 0.001) for compounds 3e and 3f, respectively, was observed. In the case of P. mirabilis, compound 3e indicated a delay in growth (3 h, P = 0.06), while no effect was recorded for compound 3f.
(§2) Figure S4. S. aureus COL (A) and P. mirabilis HI4320 (B) grown in defined carbon-limited minimal media (dotted line), with the addition of compound 3e (0.5 mM, solid line) or compound 3f (0.5 mM, dashed line). Average values of two biological replicates (n=2) each including two technical replicates are presented.
(§3) (1 picture or pasted object on this page, not shown here)

[2] = system: S. aureus strain COL; experiment: Bacterial growth assay in MM with Neu5Ac, S. aureus; type: cell-based, Staphylococcus aureus; details: MM + Neu5Ac 3.2 mM, compound 0.5 mM, P < 0.001
Protocol: (§4) To investigate the efficacy of compounds 3e and 3f in inhibiting the uptake of Neu5Ac, bacterial growth assays were performed on a uropathogenic P. mirabilis strain HI4320 and a clinical HA-MRSA isolate S. aureus strain COL. The goal was to verify that compounds 3e and 3f alter bacterial growth when grown on Neu5Ac as an additional carbon source. Growth alteration would indicate Neu5Ac uptake impairment, thus validating our approach.
as §1, with “Figure 6a,b). […] In the” for “Figure 6a,b). The effects were significant in the case of S. aureus, where a delayed growth of 4.4 and 9.4 h (P < 0.001) for compounds 3e and 3f, respectively, was observed. In the”, “compound 3f. […]” for “compound 3f.”

[3] = system: P. mirabilis strain HI4320; experiment: Bacterial growth assay in MM with Neu5Ac, P. mirabilis; type: cell-based, Proteus mirabilis; details: P. mirabilis HI4320, MM + Neu5Ac 3.2 mM, compound 0.5 mM
Protocol: as §4
as §1, with “Figure 6a,b). […] In the” for “Figure 6a,b). The effects were significant in the case of S. aureus, where a delayed growth of 4.4 and 9.4 h (P < 0.001) for compounds 3e and 3f, respectively, was observed. In the”, “compound 3f. […]” for “compound 3f.”

[4] = system: P. mirabilis HI4320; experiment: Growth in carbon-limited MM with inhibitor only, P. mirabilis; type: cell-based, Proteus mirabilis; details: MM with sodium citrate, compound 0.5 mM
Protocol: as §1, §2, §3

Compound	ability to catabolize compound (growth vs MM only) [1]	delayed growth (lag phase) [2] [h]	delay in growth (lag phase) [3]	ability to catabolize compound (growth vs MM only) [4]
CC(=O)NC1C(OCc2cc(F)cc(F)c2)CC(O)(C(=O)O)OC1C(O)C(O)CO (centres unmarked) [Compound 3e]	no ability to catabolize	4.4	3 h	no ability to catabolize
CC(=O)NC1C(OCc2cc(Br)cc(Br)c2)CC(O)(C(=O)O)OC1C(O)C(O)CO (centres unmarked) [Compound 3f]	no ability to catabolize	9.4	no effect	no ability to catabolize
